The numbers were not newly measured in US20250195401A1, “COSMETIC COMPOSITION OF LIPOSOMES CONTAINING AN EXTRACT OF HAEMATOCOCCUS PLUVIALIS, TETRAHEXYLDECYL ASCORBATE AND ECTOIN” (IMAGE INTERNATIONAL MANUFACTURING, LLC, priority 2023, published 2025), which cites them from elsewhere.

The conditions of the series: 6 h at 190° C.

As to `CC1=N[C@H](C(=O)O)CCN1` [Ectoine, (4S)-2-methyl-1,4,5,6-tetrahydropyrimidine-4-carboxylic acid], the “stability at high temperatures” value was “very stable”.
